From patent US20120156307A1, “MEDICAL USES OF NANOCLUSTERED WATER” (priority 2010, published 2012)
Where two headings read alike, the source gives them in different places.

Tests used:
[1] = test system: in vitro reconstituted human 3D skin with a corneum layer; experiment: Keratolytic effect, MTT assay on reconstituted human 3D skin; assay type: cell-based
Description: The assay was carried out on a three-dimensional reconstituted human skin model, composed of human epidermal keratinocytes that have been proliferating and differentiating in vitro in peculiar conditions in order to build up a well-differentiated stratum corneum. […] When the damage of the corneum layer is stronger, as it happens with keratolytic agents, the cytotoxic effects of the germinative layer are faster to develop. […] Thirty μL of each substance have been applied to the cell culture and incubation at 37° C. was performed for 15 and 120 minutes respectively.

[2] = test system: in vitro reconstituted human 3D skin with a corneum layer; details: 1% SLS, 10% Glycolic acid, cited from earlier work
[3] = test system: peripheral blood mononuclear cells (PBMC); experiment: In vitro inhibition of PBMC proliferation; assay type: cell-based

SMILES | cell death (cytotoxic effect) ([1]; after 2 hours, 1% SLS) | cell death, as generally stated for the reference agents ([2]; after 15') | cell death, as generally stated for the reference agents ([2]; after 2 h) | inhibition at 0.01 µM ([3]; Batch 1, 10 nM) | inhibition at 0.01 µM ([3]; Batch 2, 10 nM) | inhibition at 0.01 µM ([3]; Batch 3, 10 nM) | inhibition at 0.01 µM ([3]; Batch 4, 10 nM) | inhibition at 0.01 µM ([3]; Mean, 10 nM) | cell death ([1]; at 15', 10% glycolic acid)
CCCCCCCCCCCCOS(=O)(=O)[O-].[Na+] [SLS] | 27.69% | does not cause any cell death | about 30% |  |  |  |  |  | 
C[C@H]1C[C@H]2[C@@H]3CCC4=CC(=O)C=C[C@]4(C)[C@@]3(F)[C@@H](O)C[C@]2(C)[C@@]1(O)C(=O)CO [Betamethasone, betamethasone] |  |  |  | 87.7% | 85.7% | 79.4% | 88.5% | 85.3% | 
O=C(O)CO [glycolic acid] |  | 50% | 90% |  |  |  |  |  | 45.86%
